Measured values reported in patent US8802713B2, “3-alkoxy-1-phenylpyrazole derivatives and pesticides” (Kumiai Chemical Industry Co., Ltd., priority 2007, dated 2014).
Where two headings read alike, the source gives them in different places.

How the values were obtained:
[1] = system: cotton aphid; experiment: Insecticidal test on cotton aphid (seedling dip); format: in vivo; conditions: Aphis gossypii, 72 h
Procedure: A wettable powder prepared in accordance with Formulation Example 2 was diluted with water to a concentration of an active ingredient of 500 ppm. Cucumber seedlings which had been inoculated with larvae of cotton aphid were dipped in this solution and dried in air. The treated cucumber seedlings were placed in a thermostatic chamber at 25° C. for 3 days, and the live insects were counted for calculation of the mortality by Equation 2. The test was carried out by one series system.

[2] = system: diamondback moth; experiment: Insecticidal test on diamondback moth; format: in vivo; conditions: Plutella xylostella, 144 h
Procedure: A wettable powder prepared in accordance with Formulation Example 2 was diluted with water to a concentration of an active ingredient of 500 ppm. Cabbage leaves were dipped in this solution and dried in air and then put in a plastic cup having a capacity of 60 mL. 10 second-instar larvae of diamondback moth were released in the cup and the cup was lidded. Then, the cup was placed in a thermostatic chamber at 25° C. for 6 days, and dead moths were counted for calculation of the mortality by Equation 2. The test was carried out by one series system.

[3] = system: cotton bollworm; experiment: Insecticidal test on cotton bollworm; format: in vivo; conditions: Helicoverpa armigera, 144 h
Procedure: A wettable powder prepared in accordance with Formulation Example 2 was diluted with water to a concentration of an active ingredient of 500 ppm. Cabbage leaves were dipped in this solution and dried in air and then put in a plastic cup having a capacity of 60 mL. Five hatched larvae of cotton bollworm were released in the cup, and the cup was lidded and placed in a thermostatic chamber at 25° C. for 6 days, and the number of dead larvae were assessed for calculation of the mortality by Equation 2. The test was carried out by two series system.

[4] = system: brown rice planthopper; experiment: Insecticidal test on brown rice planthopper; format: in vivo; conditions: 144 h
Procedure: A wettable powder prepared in accordance with Formulation Example 2 was diluted with water to a concentration of an active ingredient of 500 ppm. Rice sprouts were dipped in this solution and put in a plastic cup having a capacity of 60 mL. Ten third-instar larvae of brown rice planthopper were released in the cup, the cup was lidded and placed in a thermostatic chamber at 25° C. for 6 days, and the number of dead larvae were counted for calculation of the mortality by Equation 2. The test was carried out by one series system.

[5] = system: two-spotted spider mites; experiment: Miticidal test on two-spotted spider mites (seedling dip); format: in vivo, Tetranvchus urticae; conditions: Glycine max, 312 h, read-out: protective value
Procedure: A wettable powder prepared in accordance with Formulation Example 2 was diluted with water to a concentration of an active ingredient of 500 ppm. Soybean seedlings which had been inoculated with imago two-spotted spider mites were dipped in the solution and dried in air. The treated soybean seedlings were placed in a thermostatic chamber at 25° C. for 13 days, and the number of live mites were assessed for calculation of the protective value by Equation 1. The test was carried out by one series system.

[6] = 500 ppm active ingredient, soybean seedlings with imago mites dipped, 25° C., 13 days
[7] = 500 ppm active ingredient, cucumber seedlings with larvae of cotton aphid dipped, 25° C., 3 days, read-out: mortality
[8] = 500 ppm active ingredient, cabbage leaves dipped, second-instar larvae, 25° C., 6 days, read-out: mortality
[9] = 500 ppm active ingredient, cabbage leaves dipped, hatched larvae, 25° C., 6 days, read-out: mortality

| Compound | mortality at 500 ppm ([1]; in Cucumis sativus) [%] | mortality at 500 ppm ([2]; in Brassica oleracea) [%] | mortality at 500 ppm ([3]; in Brassica oleracea) [%] | mortality at 500 ppm [4] [%] | pest or weed control at 500 ppm [5, 6] [%] | mortality at 500 ppm [1, 7] [%] | mortality at 500 ppm [2, 8] [%] | mortality at 500 ppm [3, 9] [%] | pest or weed control at 500 ppm [5] [%] | melting point [°C] |
| --- | --- | --- | --- | --- | --- | --- | --- | --- | --- | --- |
| Cc1cc(F)c(-n2nc(OC(F)(F)C(F)C(F)(F)F)cc2N)cc1SCC(F)(F)F (stereo not shown) [1-9, 5-amino-1-{2-fluoro-4-methyl-5-(2,2,2-trifluoroethylthio)phenyl}-3-(1,1,2,3,3,3-hexafluoropropoxy)pyrazole] | ≥ 90 | ≥ 90 | ≥ 90 | ≥ 90 | ≥ 90 | – | – | – | – | – |
| CNc1cc(OC(F)(F)C(F)OC(F)(F)C(F)(F)C(F)(F)F)nn1-c1cc(SCC(F)(F)F)c(C)cc1F (stereo not shown) [1-347, 1-{2-fluoro-4-methyl-5-(2,2,2-trifluoroethylthio)phenyl}-5-methylamino-3-{1,1,2-trifluoro-2-(heptafluoropropoxy)ethoxy}pyrazole] | – | – | – | ≥ 90 | – | ≥ 90 | ≥ 90 | ≥ 90 | ≥ 90 | – |
| CC(=O)Nc1cc(OCC(F)(F)C(F)(F)F)nn1-c1cc(SCC(F)(F)F)c(C)cc1F [1-17, 5-acetylamino-1-{2-fluoro-4-methyl-5-(2,2,2-trifluoroethylthio)phenyl}-3-(2,2,3,3,3-pentafluoropropoxy)pyrazole] | ≥ 90 | ≥ 90 | ≥ 90 | ≥ 90 | ≥ 90 | – | – | – | – | – |
| C#CCNc1cc(OC(F)(F)C(F)OC(F)(F)C(F)(F)C(F)(F)F)nn1-c1cc(SCC(F)(F)F)c(C)cc1F (stereo not shown) [1-357, 1-{2-fluoro-4-methyl-5-(2,2,2-trifluoroethylthio)phenyl}-5-(2-propynylamino)-3-{1,1,2-trifluoro-2-(heptafluoropropoxy)ethoxy}pyrazole] | – | – | – | ≥ 90 | – | ≥ 90 | ≥ 90 | ≥ 90 | ≥ 90 | – |
| Cc1cc(F)c(-n2nc(OCC(F)(F)C(F)(F)F)cc2CC(N)=O)cc1SCC(F)(F)F [1-139, 1-{2-fluoro-4-methyl-5-(2,2,2-trifluoroethylthio)phenyl}-3-(2,2,3,3,3-pentafluoropropoxy)pyrazole-5-carboxyamide] | – | – | – | – | – | – | – | – | – | 102 to 104 |
| CC(=O)Nc1cc(OC(F)(F)C(F)F)nn1-c1cc([S+]([O-])CC(F)(F)F)c(C)cc1F (stereo not shown) [1-1368, 5-acetylamino-1-{2-fluoro-4-methyl-5-(2,2,2-trifluoroethylsulfinyl)phenyl}-3-(1,1,2,2-tetrafluoroethoxy)pyrazole] | ≥ 90 | ≥ 90 | ≥ 90 | ≥ 90 | ≥ 90 | – | – | – | – | – |
| C#CCNc1cc(OCC(F)(F)C(F)(F)F)nn1-c1cc(SCC(F)(F)F)c(C)cc1F [1-161, 1-{2-fluoro-4-methyl-5-(2,2,2-trifluoroethylthio)phenyl}-3-(2,2,3,3,3-pentafluoropropoxy)-5-(2-propynylamino)pyrazole] | ≥ 90 | ≥ 90 | ≥ 90 | ≥ 90 | ≥ 90 | – | – | – | – | – |
| CNc1cc(OC(F)(F)C(F)(F)C(F)(F)C(F)(F)C(F)(F)F)nn1-c1cc(SCC(F)(F)F)c(C)cc1F [1-524, 1-{2-fluoro-4-methyl-5-(2,2,2-trifluoroethylthio)phenyl}-5-methylamino-3-(1,1,2,2,3,3,4,4,5,5,5-undecafluoropentyloxy)pyrazole] | – | – | – | ≥ 90 | – | – | ≥ 90 | ≥ 90 | ≥ 90 | – |
| CC(=O)Nc1cc(OCC(F)(F)C(F)(F)C(F)(F)C(F)(F)F)nn1-c1cc([S+]([O-])CC(F)(F)F)c(C)cc1F (stereo not shown) [1-78, 5-acetylamino-1-{2-fluoro-4-methyl-5-(2,2,2-trifluoroethylsulfinyl)phenyl}-3-(2,2,3,3,4,4,5,5,5-nonafluoropentyloxy)pyrazole] | – | – | – | ≥ 90 | – | – | ≥ 90 | ≥ 90 | ≥ 90 | – |
| CC(=O)Nc1cc(OC(F)(F)C(F)OC(F)(F)F)nn1-c1cc(SCC(F)(F)F)c(C)cc1F (stereo not shown) [1-15, 5-acetylamino-1-{2-fluoro-4-methyl-5-(2,2,2-trifluoroethylthio)phenyl}-3-{1,1,2-trifluoro-2-(trifluoromethoxy)ethoxy}pyrazole] | ≥ 90 | ≥ 90 | ≥ 90 | ≥ 90 | ≥ 90 | – | – | – | – | – |
| CCOC(=O)c1cc(OCC(F)(F)C(F)(F)F)nn1-c1cc(SCC(F)(F)F)c(C)cc1F [1-143, ethyl 1-{2-fluoro-4-methyl-5-(2,2,2-trifluoroethylthio)phenyl}-3-(2,2,3,3,3-pentafluoropropoxy)pyrazole-5-carboxylate] | – | – | – | – | – | – | – | – | – | 81 to 84 |
| Cc1cc(F)c(-n2nc(OCC(F)(F)C(F)(F)C(F)(F)F)cc2NC=O)cc1SCC(F)(F)F [1-1593, 1-{2-fluoro-4-methyl-5-(2,2,2-trifluoroethylthio)phenyl}-5-formylamino-3-(2,2,3,3,4,4,4-heptafluorobutoxy)pyrazole] | – | – | – | ≥ 90 | – | ≥ 90 | ≥ 90 | ≥ 90 | ≥ 90 | – |
| COc1cc(OC(F)(F)C(F)OC(F)(F)F)nn1-c1cc([S+]([O-])CC(F)(F)F)c(C)cc1F (stereo not shown) [1-795, 1-{2-fluoro-4-methyl-5-(2,2,2-trifluoroethylsulfinyl)phenyl}-5-methoxy-3-{1,1,2-trifluoro-2-(trifluoromethoxy)ethoxy}pyrazole] | ≥ 90 | ≥ 90 | ≥ 90 | ≥ 90 | ≥ 90 | – | – | – | – | – |
| CC(=O)Nc1cc(OC(F)(F)C(F)OC(F)(F)F)nn1-c1cc([S+]([O-])CC(F)(F)F)c(C)cc1F (stereo not shown) [1-16, 5-acetylamino-1-{2-fluoro-4-methyl-5-(2,2,2-trifluoroethylsulfinyl)phenyl}-3-{1,1,2-trifluoro-2-(trifluoromethoxy)ethoxy}pyrazole] | ≥ 90 | ≥ 90 | ≥ 90 | – | ≥ 90 | – | – | – | – | – |
| Cc1cc(F)c(-n2nc(OCC(F)(F)C(F)(F)C(F)(F)F)cc2NC=O)cc1[S+]([O-])CC(F)(F)F (stereo not shown) [1-1594, 1-{2-fluoro-4-methyl-5-(2,2,2-trifluoroethylsulfinyl)phenyl}-5-formylamino-3-(2,2,3,3,4,4,4-heptafluorobutoxy)pyrazole] | – | – | – | – | – | ≥ 90 | ≥ 90 | ≥ 90 | – | – |
| CNc1cc(OC(F)(F)C(F)(F)C(F)(F)C(F)(F)C(F)(F)F)nn1-c1cc([S+]([O-])CC(F)(F)F)c(C)cc1F (stereo not shown) [1-525, 1-{2-fluoro-4-methyl-5-(2,2,2-trifluoroethylsulfinyl)phenyl}-5-methylamino-3-(1,1,2,2,3,3,4,4,5,5,5-undecafluoropentyloxy)pyrazole] | – | – | – | ≥ 90 | – | – | ≥ 90 | ≥ 90 | ≥ 90 | – |
| CNc1cc(OC(F)(F)C(F)C(F)(F)F)nn1-c1cc([S+]([O-])CC(F)(F)F)c(C)cc1F (stereo not shown) [1-187, 1-{2-fluoro-4-methyl-5-(2,2,2-trifluoroethylsulfinyl)phenyl}-3-(1,1,2,3,3,3-hexafluoropropoxy)-5-methylaminopyrazole] | – | – | – | ≥ 90 | – | ≥ 90 | ≥ 90 | ≥ 90 | – | – |
